Results: US20080076824A1, “Compounds That Inhibit Replication Of Human Immunodeficiency Virus” (priority 2004, published 2008)
Read-outs that look alike come from different tables or passages of the source.

Key:
HIV-1 (IIIB) [1] = assay: microbe, parasite or virus in culture; settings: Human immunodeficiency virus 1, IIIB, CCRF-CEM, read-out: EC50 against HIV-1(IIIB), CEM cell cultures, Table 2
HIV-1 (IIIB) [2] = system: HIV-1 (IIIB)
HIV-2(ROD) = assay: microbe, parasite or virus in culture; settings: read-out: EC50 (MT-4) HIV-2 (ROD); Table 19
Procedure: (§1) MT-4, C8166 or CEM cells (4 to 5×10^5 cells per ml) were suspended in fresh culture medium (RPMI-1640 medium supplemented with 10% fetal bovine serum (FBS) (BioWittaker Europe, Verviers, Belgium), 2 mM L-glutamine and […] NaHCO3). Subsequently, the cells were infected with HIV-1 (IIIB) or HIV-2(ROD) at ˜100 CCID50 (1 CCID50 being the dose infective for 50% of the cell cultures) per ml of cell suspension. Then, 100 μl of the infected cell suspension were transferred to 96-well microplate wells, mixed with 100 μl of the appropriate (5-fold) dilutions of the test compounds and further incubated at 37° C. After 4 to 5 days, giant cell formation was recorded microscopically in the CEM and C8166 cell cultures. The MT-4 cell cultures were treated with trypan blue and the number of viable cells was determined.

HIV-1 (IIIB) [3] = assay: microbe, parasite or virus in culture; settings: read-out: EC50 (MT-4) HIV-1 (IIIB); Table 19
Procedure: as §1

SMILES | EC50 (HIV-1 (IIIB) [1]) [µM] | also measured
NCC(N)C(=O)O (racemic) [DL-2,3-diaminopropionic acid] | > 1000 | –
CC(C)CC(N)C(N)=O (racemic) [DL-Leucinamide] | > 500 | –
NC(=O)C(N)Cc1ccccc1 (racemic) [DL-Phenylalaninamide] | > 1000 | –
NC(=O)C(N)Cc1c[nH]c2ccccc12 (racemic) [DL-Tryptophanamide] | > 500 | –
NCC(O)CN [1,3-diamino-2-hydroxypropane] | > 1000 | –
NCC(=O)CN [1,3-diaminoaceton] | > 1000 | –
NC(=O)C[C@@H](N)C(=O)O [D-Asparagine] | > 500 | –
CC(C)C[C@@H](N)C(=O)O [D-Leucine] | > 1000 | –
NCCN [Ethylene diamine] | > 1000 | –
CC(C)(C)OC(=O)NC(=O)C(N)OCc1ccccc1 (stereo not drawn) [Example 20, α-benzyloxy-N-tert-butoxycarbonylglycinamide] | – | melting point: 115 to 120 °C
COC(N)C(=O)NC(=O)OCc1ccccc1 (stereo not drawn) [Example 22, α-methoxy-N-benzyloxycarbonylglycinamide] | – | melting point: 110 to 112 °C
CCOC(=O)C(NC(=O)OCc1ccccc1)OCC (stereo not drawn) [Example 23, α-ethoxy-N-benzyloxycarbonylglycine ethyl ester] | – | melting point: 66 to 68 °C
CCOC(N)C(=O)NC(=O)OCc1ccccc1 (stereo not drawn) [Example 25, α-ethoxy-N-benzyloxycarbonylglycinamide] | – | melting point: 119 to 121 °C
CC(C)OC(N)C(=O)NC(=O)OCc1ccccc1 (stereo not drawn) [Example 26, α-isopropoxy-N-benzyloxycarbonylglycinamide] | – | melting point: 111 to 113 °C
NCC(N)=S [Glycin-thioamide, reference compound] | – | EC50 (HIV-1 (IIIB) [2]; read-out: EC50 against HIV-1(IIIB), CEM cell cultures, Table 2): > 500 µM
CNC(=O)CN [Glycine methylamide] | > 500 | –
NCC(=O)O [Glycine] | > 500 | –
NC(=O)CO [Glycolamide, Glycolamide (HO—CH2—CO—NH2), reference compound] | – | EC50 (HIV-1 (IIIB) [2]; read-out: EC50 (CEM) HIV-1 (IIIB), Table 19): > 500 µM; EC50 (HIV-2(ROD)): > 500 µM; EC50 (HIV-1 (IIIB) [3]): > 500 µM
C[C@H](N)C(N)=O [L-Alaninamide] | > 500 | –
C[C@H](N)C(=O)O [L-Alanine] | > 500 | –
